Measured values reported in patent publication US7101878B1 (Agouron Pharmaceuticals, Inc., priority 1998, dated 2006).
Read-outs that look alike come from different tables or passages of the source.

Columns and labels:
mouse GnRH receptor = target: T1, mouse GnRH receptor (Mus musculus, UniProt Q01776); assay: Radioligand binding, 125I-GnRH-A, 293 cells expressing mouse GnRH receptors; settings: 10 uM; read-out: % Inhib. @ 10 uM mGnRH
T1 construct: expressed in transfected cells; host or cells: 293 cells
T1 sequence (Q01776 1-327): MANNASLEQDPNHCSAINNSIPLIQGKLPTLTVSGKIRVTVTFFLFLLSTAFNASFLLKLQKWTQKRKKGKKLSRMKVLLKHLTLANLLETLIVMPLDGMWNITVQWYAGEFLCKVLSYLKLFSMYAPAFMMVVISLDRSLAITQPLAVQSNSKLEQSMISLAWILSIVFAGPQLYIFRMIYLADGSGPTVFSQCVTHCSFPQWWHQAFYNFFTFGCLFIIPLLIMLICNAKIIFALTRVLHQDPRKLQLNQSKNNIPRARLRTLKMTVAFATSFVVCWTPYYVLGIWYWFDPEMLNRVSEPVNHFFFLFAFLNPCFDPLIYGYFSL
Description: All compounds were diluted in 1% DMSO (final assay concentration) in binding assay buffer. […] Reactions were terminated by rapid filtration onto 96-well Packard GF/C filters soaked in 0.1% polyethyleneimine. Filters were washed three times with PBS buffer, dried and counted on a Packard Topcount by liquid scintillation counting.
Assay conditions were identical for assessing compound activities at other species. […] IC50 values for control peptides and test compounds were calculated utilizing GraphPad Prism™ software.
The reaction mixture was vortexed and incubated for 1 min at room temperature. After one min, the mixture was vortexed and allowed to incubate for an additional minute. 2 ml of 0.5 M acetic acid/1% BSA was added to the reaction tube and the mixture was added to a C18 Sep-Pak cartridge. The cartridge was washed with subsequent washes of 5 ml H2O and 5 ml 0.5M acetic acid and then eluted with 5×1 ml of 60% CH3CN/40% 0.5M acetic acid. The eluate was diluted with 3× volume of HPLC buffer A (0.1% TFA in H2O) and loaded onto a C18 column. […] The radioactive fractions (750 ed/fraction) are collected into clean polypropylene tubes containing 100 μl of 10% BSA. Fractions were assessed for biological activity by radioligand binding.

human GnRH receptor = target: T2, human GnRH receptor (Homo sapiens, UniProt P30968); assay: Radioligand binding, 125I-GnRH-A displacement, membranes of HEK 293 cells with human GnRH receptor
T2 construct: expressed in transfected cells; host or cells: HEK 293 (hGnRH-R/293, from Dr. Stuart Sealfon)
T2 sequence (P30968 1-328): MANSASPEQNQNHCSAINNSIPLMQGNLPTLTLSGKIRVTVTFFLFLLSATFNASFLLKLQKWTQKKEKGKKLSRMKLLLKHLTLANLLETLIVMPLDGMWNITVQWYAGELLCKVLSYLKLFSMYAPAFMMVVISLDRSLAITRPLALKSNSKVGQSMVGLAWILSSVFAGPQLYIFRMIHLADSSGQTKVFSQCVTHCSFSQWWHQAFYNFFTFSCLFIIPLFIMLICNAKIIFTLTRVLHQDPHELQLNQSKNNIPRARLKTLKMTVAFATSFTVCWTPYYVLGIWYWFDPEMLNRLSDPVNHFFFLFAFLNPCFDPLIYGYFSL
Outline: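 After filtration and PBS washes, bound radioactivity was counted by scintillation and IC50 derived. Identical conditions applied for non-human receptors.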

[1] = 1 uM, read-out: % Inhib. @ 1 uM hGnRH
[2] = 1 h, repeat of % Inhib. at 1 uM, read-out: Repeats @ 1 uM hGnRH

SMILES	inhibition at 10 µM (mouse GnRH receptor) [%]	inhibition at 1 µM (human GnRH receptor; [1]) [%]	inhibition at 1 µM (human GnRH receptor; [2]) [%]
Cc1cc2c(cc1Cc1ccc(C(=O)NCCCN(C)C)o1)C(C)(C)CCC2(C)C	99	–	–
Cc1cc2c(cc1Cc1ccc(C(=O)N3CCC[C@H]3CO)o1)C(C)(C)CCC2(C)C	93	–	–
Cc1cc2c(cc1Cc1ccc(C(=O)N3CCCC3CNc3ccccc3)o1)C(C)(C)CCC2(C)C (centres unmarked)	53	–	–
Cc1cc2c(cc1Cc1ccc(C(=O)NC(C)c3cccc4ccccc34)o1)C(C)(C)CCC2(C)C (centres unmarked)	28	–	–
C#CCN(C)C(=O)c1ccc(Cc2cc3c(cc2C)C(C)(C)CCC3(C)C)o1	83	–	–
Cc1cc2c(cc1Cc1ccc(C(=O)N3CCC(c4cccc(C(F)(F)F)c4)C(O)C3)o1)C(C)(C)CCC2(C)C (centres unmarked)	35	–	–
Cc1cc2c(cc1Cc1ccc(C(=O)N3CCN(c4ccccc4O)CC3)o1)C(C)(C)CCC2(C)C	36	–	–
Cc1cc2c(cc1Cc1ccc(C(=O)N(CCC#N)Cc3ccccc3)o1)C(C)(C)CCC2(C)C	74	–	–
Cc1cc2c(cc1Cc1ccc(C(=O)N(CCC(c3ccccc3)c3ccccc3)C(C)c3ccccc3)o1)C(C)(C)CCC2(C)C (centres unmarked)	30	–	–
Cc1cc2c(cc1Cc1ccc(C(=O)NCCc3ccc(OCc4ccccc4)c(OCc4ccccc4)c3)o1)C(C)(C)CCC2(C)C	20	–	–
Cc1cc2c(cc1Cc1ccc(C(=O)N(C)CCCC34c5ccccc5[C@@H]5CCC53c3ccccc34)o1)C(C)(C)CCC2(C)C (some centres unmarked)	14	–	–
Cc1cc2c(cc1Cc1ccc(C(=O)N(Cc3c[nH]c4ccccc34)C3CCCCC3)o1)C(C)(C)CCC2(C)C	27	–	–
COc1cc2c(cc1OC)C(c1ccccc1)N(C(=O)c1ccc(Cc3cc4c(cc3C)C(C)(C)CCC4(C)C)o1)CC2 (centres unmarked)	29	–	–
Cc1cc2c(cc1Cc1ccc(C(=O)N3CC4(C)CC3CC(C)(C)C4)o1)C(C)(C)CCC2(C)C (centres unmarked)	100	–	–
Cc1cc2c(cc1Cc1ccc(C(=O)N3CC=C(n4c(=O)[nH]c5ccccc54)CC3)o1)C(C)(C)CCC2(C)C	85	–	–
Cc1cc2c(cc1Cc1ccc(C(=O)NC3C4CC5CC6CC(C5)C643)o1)C(C)(C)CCC2(C)C (centres unmarked)	37	–	–
Cc1cc2c(cc1Cc1ccc(C(=O)N3CCC[C@@H]3C(=O)NC(c3ccccc3)c3ccccc3)o1)C(C)(C)CCC2(C)C	58	–	–
Cc1cc2c(cc1Cc1ccc(C(=O)NCCC(C)C)o1)C(C)(C)CCC2(C)C	88	–	–
Cc1cc2c(cc1Cc1ccc(C(=O)N[C@H](C)c3ccccc3)o1)C(C)(C)CCC2(C)C	72	–	–
Cc1cc2c(cc1Cc1ccc(C(=O)N3CCC[C@@H]3C(=O)OCc3ccccc3)o1)C(C)(C)CCC2(C)C	86	–	–
Cc1cc2c(cc1Cc1ccc(C(=O)N(C)CC(O)c3ccc(O)cc3)o1)C(C)(C)CCC2(C)C (centres unmarked)	34	–	–
COc1ccccc1CN(CCC(c1ccccc1)c1ccccc1)C(=O)c1ccc(Cc2cc3c(cc2C)C(C)(C)CCC3(C)C)o1	21	–	–
Cc1cc2c(cc1Cc1ccc(C(=O)N(CCC(c3ccccc3)c3ccccc3)Cc3ccc4c(c3)OCO4)o1)C(C)(C)CCC2(C)C	25	–	–
Cc1cc2c(cc1Cc1ccc(C(=O)N(CCC(c3ccccc3)c3ccccc3)CC3CCCCC3)o1)C(C)(C)CCC2(C)C	31	–	–
Cc1cc2c(cc1Cc1ccc(C(=O)N(Cc3ccc(O)cc3)C3CCN(Cc4ccccc4)CC3)o1)C(C)(C)CCC2(C)C	28	–	–
COC(=O)C1SCCN1C(=O)c1ccc(Cc2cc3c(cc2C)C(C)(C)CCC3(C)C)o1 (centres unmarked)	39	–	–
Cc1cc2c(cc1Cc1ccc(C(=O)N[C@H](C)c3ccc([N+](=O)[O-])cc3)o1)C(C)(C)CCC2(C)C	44	–	–

SMILES	inhibition at 10 µM (mouse GnRH receptor) [%]	inhibition at 1 µM (human GnRH receptor; [1]) [%]	inhibition at 1 µM (human GnRH receptor; [2]) [%]
Cc1cc2c(cc1Cc1ccc(C(=O)NC(C)(C)CNC(=O)C(F)(F)F)o1)C(C)(C)CCC2(C)C	37	–	–
COc1ccc(CCNC(=O)c2ccc(Cc3cc4c(cc3C)C(C)(C)CCC4(C)C)o2)cc1 [drawing 1173]	–	42	53
Cc1cccc(CNC(=O)c2ccc(Cc3cc4c(cc3C)C(C)(C)CCC4(C)C)o2)c1 [drawing 1174]	–	93	95
Cc1ccc(CNC(=O)c2ccc(Cc3cc4c(cc3C)C(C)(C)CCC4(C)C)o2)cc1 [drawing 1175]	–	87	90
Cc1cc2c(cc1Cc1ccc(C(=O)NCCO)o1)C(C)(C)CCC2(C)C [drawing 1178]	–	1	1
Cc1cc2c(cc1Cc1ccc(C(=O)NCCC#N)o1)C(C)(C)CCC2(C)C [drawing 1179]	–	42	44
Cc1cc2c(cc1Cc1ccc(C(=O)NCCc3cccc(F)c3)o1)C(C)(C)CCC2(C)C [drawing 1181]	–	59	62
Cc1cc2c(cc1Cc1ccc(C(=O)NCCOc3ccccc3)o1)C(C)(C)CCC2(C)C [drawing 1182]	–	93	95
COc1cccc(CNC(=O)c2ccc(Cc3cc4c(cc3C)C(C)(C)CCC4(C)C)o2)c1 [drawing 1188]	–	76	79
Cc1cc2c(cc1Cc1ccc(C(=O)NCc3cccc(-c4ccccc4)c3)o1)C(C)(C)CCC2(C)C [drawing 1190]	–	-10	-6
Cc1ccc(CNC(=O)c2ccc(Cc3cc4c(cc3C)C(C)(C)CCC4(C)C)o2)cc1C [drawing 1191]	–	77	79
Cc1cc2c(cc1Cc1ccc(C(=O)NCc3cccc(C)c3C)o1)C(C)(C)CCC2(C)C [drawing 1192]	–	81	85
Cc1ccc(CCNC(=O)c2ccc(Cc3cc4c(cc3C)C(C)(C)CCC4(C)C)o2)cc1 [drawing 1193]	–	48	52
Cc1cc2c(cc1Cc1ccc(C(=O)NCc3cccc(F)c3)o1)C(C)(C)CCC2(C)C [drawing 1195]	–	81	82
Cc1cc2c(cc1Cc1ccc(C(=O)NCC(O)c3ccccc3)o1)C(C)(C)CCC2(C)C (centres unmarked) [drawing 1196]	–	68	69
Cc1cc2c(cc1Cc1ccc(C(=O)NCc3ccc(F)cc3F)o1)C(C)(C)CCC2(C)C [drawing 1197]	–	74	81
Cc1cc2c(cc1Cc1ccc(C(=O)NCCc3ccc(F)cc3)o1)C(C)(C)CCC2(C)C [drawing 1198]	–	45	45
Cc1cc2c(cc1Cc1ccc(C(=O)NC(CO)CC3CCCCC3)o1)C(C)(C)CCC2(C)C (centres unmarked) [drawing 1215]	–	10	2
Cc1cc2c(cc1Cc1ccc(C(=O)NCc3ccc(N(C)C)cc3)o1)C(C)(C)CCC2(C)C [drawing 1220]	–	78	85
COc1cc(CNC(=O)c2ccc(Cc3cc4c(cc3C)C(C)(C)CCC4(C)C)o2)ccc1O [drawing 1222]	–	54	54
Cc1cc2c(cc1Cc1ccc(C(=O)NCc3ccccc3Br)o1)C(C)(C)CCC2(C)C [drawing 1223]	–	57	60
COc1ccc(CNC(=O)c2ccc(Cc3cc4c(cc3C)C(C)(C)CCC4(C)C)o2)c(OC)c1 [drawing 1224]	–	94	96
Cc1cc2c(cc1Cc1ccc(C(=O)NCc3cccc([N+](=O)[O-])c3)o1)C(C)(C)CCC2(C)C [drawing 1231]	–	75	77
Cc1cc2c(cc1Cc1ccc(C(=O)NC(C#N)c3ccccc3)o1)C(C)(C)CCC2(C)C (centres unmarked) [drawing 1233]	–	43	48
Cc1cc2c(cc1Cc1ccc(C(=O)NCc3ccc(Br)cc3)o1)C(C)(C)CCC2(C)C [drawing 1234]	–	49	52
Cc1cc2c(cc1Cc1ccc(C(=O)NCc3cccc(Br)c3)o1)C(C)(C)CCC2(C)C [drawing 1235]	–	62	68
Cc1cc2c(cc1Cc1ccc(C(=O)NC(C)c3ccc([N+](=O)[O-])cc3)o1)C(C)(C)CCC2(C)C (centres unmarked) [drawing 1238]	–	41	44
